In patent publication US4094966A, “Iodobenzene derivatives and X-ray contrast media containing the same” (priority 1974, dated 1978):

What was measured:
rats = assay: Toxicological investigation in rats on intracisternal injection (Melartin's method); type: in vivo
Source text: The results of a toxicological investigation effected in rats on intracisternal injection, according to E. Melartin's method (InvestigativeRadiology 1970 5, 1, 13-21) are also set forth below.

mice = assay: Acute toxicity determination, intravenous toxicity in mice; type: in vivo, mice (Swiss origin, IOPS mice of OFI strain); details: 24 hours, 28% I, Mgl salt
Description: Intravenous toxicity determination was effected in Swiss origin, IOPS mice of OFI strain.
Each dosage level was injected to a lot of 10 mice comprising 5 male and 5 female mice.
Injections were made manually, in the caudal vein, at a rate of 2 ml/minute.
Death rate during the 24 hours after injection was recorded.

[1] = Biliary clearance test in cats; type: in vivo; parameters: scale not given here; details: i.v., 0.10 g I/kg; 28% I, Mgl salt
Description: This test was conducted in male or female adult cats weighing 3-4 kg.
The test material was injected intravenously, at a dosage of 0.10 g/kg iodine at the level of the internal saphenous vein. Clearance of the material was monitored by X-ray control.
X-ray pictures visualizing the gall bladder and the bladder were taken at the following times: 30 minutes, 1 hour, 2 hours, 3 hours, 4 hours, 5 hours, 6 hours.

femoral artery = assay: Effect on the femoral rate of flow (peripheral vasodilatation); type: in vivo, mongrels; details: 1.5 ml into collateral of femoral artery; 28% I, Mgl salt
Description: This test was carried out in Nembutal-anesthetized male or female 7-12 mongrels.
Nembutal was used at a dosage of 30 mg/kg, with Vetranquil pre-medication, (overall intravenous injection of 2.5 mg), respiration was spontaneous.
Rate of flow variations were recorded at the level of the right or left fermoral artery, by means of a Statham electromagnetic sensor.
The injections were made in a collateral of the fermoral artery, downstream of the sensor, by means of a catheter mounted by the retrograde route, so as not to perturb the blood flow.
The injections were made under a constant volume of 1.5 ml administered within 3-5 seconds.
The same volume of an iostonic sodium chloride solution was also injected.

[2] = Viscosity of 28% methylglucamine salt solutions at 37° C; type: physicochemical; details: 28% iodine methylglucamine salt solution
Description: Pharmaceutical grade injectable solutions are prepared in the form of the methylgucamine or sodium salt, containing 28, 38 or 48 g iodine per 100 ml (solutions said to contain 28%, 38% and 48% iodine).
It is apparent, from said results, that, contrary to expectations, the compounds of the formula (I) have relatively low solution viscosities.

[3] = Osmolality determination (FISKE osmometer); type: physicochemical; details: solutions containing 28% iodine; methylglucamine salts; extrapolation from successive dilutions
Description: Osmolality is determined by extrapolation of the values obtained on successive dilutions of solutions containing 28% or 38% iodine.
Osmolality readings are made with a FISKE Model 230/D/330 D osmometer. This apparatus indicates this measurement as milliosmoles per kg of solution. Its operation is based on the principles of cryoscopy. The determinations were made with solutions containing 28% iodine.

| SMILES | Death rate (rats; 56 mg I per rat) | Acute toxicity in mice, i.v. (mice) [grams I/kg] | Biliary clearance in cat, i.v. [1] | Peripheral vasodilatation, femoral rate of flow (femoral artery) | Viscosity [2] [cps] | Osmolality [3] [mosm/kg] | Death rate (rats; 50 mg I per rat) | Death rate (rats; 17 mg I per rat) |
| --- | --- | --- | --- | --- | --- | --- | --- | --- |
| CNC(=O)c1c(I)c(NC(=O)CN(CC(=O)Nc2c(I)c(C(=O)NCCO)c(I)c(C(=O)NCCO)c2I)CC(=O)Nc2c(I)c(C(=O)NCCO)c(I)c(C(=O)NCCO)c2I)c(I)c(C(=O)O)c1I [Compound 31, 2,4,6-triiodo--3-N-methylcarbamyl-5-bis{[2,4,6-triiodo-3,5-bis(N-hydroxyethylcarbamyl)-phenyl]carbamylmethyl} aminoacetamido-benzoic acid] | 1/10 | 15 | 0 | + | 10.2 | 350 |  |  |
| CC(=O)N(C)c1c(I)c(NC(=O)CN(CC(=O)Nc2c(I)c(C(=O)NCCO)c(I)c(C(=O)NCCO)c2I)CC(=O)Nc2c(I)c(C(=O)NCCO)c(I)c(C(=O)NCCO)c2I)c(I)c(C(=O)O)c1I [Compound 32, 2,4,6-triiodo-3-N-methylacetamido-5-bis{[2,4,6-triiodo-3,5-bis(N-hydroxyethylcarbamyl)-phenyl]carbamylmethyl}aminoacetamido-benzoic acid] |  | 15 | 0 | + |  | 270 | 0/10 |  |
| CNC(=O)c1c(I)c(NC(=O)CCCCC(=O)Nc2c(I)c(C(=O)O)c(I)c(C(=O)NC)c2I)c(I)c(C(=O)O)c1I [c, 5,5'-Adipoyldiimido-bis-(2,4,6-triiodo-N-methylisophthalamic)acid, reference compound] |  | 6.2 | 0 | ++ |  | 950 |  | 9/10 |
